Experimental data: US9790174B2, “Kinase inhibitors” (Respivert Limited, priority 2013, dated 2017)

Tests used:
B-Raf = B-Raf (Homo sapiens (Human), UniProt P15056); experiment: KINOMEscan binding of kinase to standard ligand
Procedure: (§1) Kinase enzyme binding activities of compounds disclosed herein may be determined using a proprietary assay which measures active site-directed competition binding to an immobilized ligand (Fabian, M. A. et al., Nature Biotechnol., 2005, 23:329-336). These assays may be conducted by DiscoverX (formerly Ambit; San Diego, Calif.). The percentage inhibition produced by incubation with a test compound may be calculated relative to the non-inhibited control.

B-Raf (V600E) = B-Raf (V600E) (Homo sapiens (Human), UniProt P15056, V600E); experiment: KINOMEscan binding of kinase to standard ligand
Chain of B-Raf (V600E) (P15056 whole entry V600E): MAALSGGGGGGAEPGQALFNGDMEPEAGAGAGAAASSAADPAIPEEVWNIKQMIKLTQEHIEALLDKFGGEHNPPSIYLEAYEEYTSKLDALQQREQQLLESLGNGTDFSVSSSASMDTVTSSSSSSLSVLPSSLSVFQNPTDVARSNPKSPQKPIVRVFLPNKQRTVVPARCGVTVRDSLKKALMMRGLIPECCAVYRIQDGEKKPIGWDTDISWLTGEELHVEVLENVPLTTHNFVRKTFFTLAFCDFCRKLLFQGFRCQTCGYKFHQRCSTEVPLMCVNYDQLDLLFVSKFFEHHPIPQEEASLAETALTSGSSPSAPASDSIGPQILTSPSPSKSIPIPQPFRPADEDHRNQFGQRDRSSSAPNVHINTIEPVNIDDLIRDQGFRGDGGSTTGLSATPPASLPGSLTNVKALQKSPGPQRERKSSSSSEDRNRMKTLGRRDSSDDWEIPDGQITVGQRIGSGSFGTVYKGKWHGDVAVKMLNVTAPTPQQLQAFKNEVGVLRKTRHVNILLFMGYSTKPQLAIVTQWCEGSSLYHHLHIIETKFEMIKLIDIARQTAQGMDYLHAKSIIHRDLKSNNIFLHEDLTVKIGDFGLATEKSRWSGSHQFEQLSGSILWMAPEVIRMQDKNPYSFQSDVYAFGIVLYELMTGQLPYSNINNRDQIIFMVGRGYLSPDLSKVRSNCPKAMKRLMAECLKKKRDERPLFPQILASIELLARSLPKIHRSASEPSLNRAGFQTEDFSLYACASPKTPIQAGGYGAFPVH
Procedure: as §1

non-mutant kinases = experiment: KinomeScan selectivity scores; format: binding; settings: for number of individual kinase hits S(1): % Ctrl <1; for number of individual kinase hits S(10): % Ctrl <10; for number of individual kinase hits S(35): % Ctrl <35; for selectivity compared to the Reference Compound: evidenced by lower selectivity scores
Procedure: These assays may be conducted by DiscoverX (formerly Ambit; San Diego, Calif.). The percentage inhibition produced by incubation with a test compound may be calculated relative to the non-inhibited control.

TNBS-induced colitis = TNBS-induced colitis in mice; format: in vivo, BDF1 mice; settings: conducted over 2 days; oral
Procedure: Non-fasted, 10-12 week old, male BDF1 mice are dosed by oral gavage twice daily with either vehicle (5 mL/kg), reference item (Budesonide 2.5 mg/kg) or test compound (1 or 5 mg/kg) one day before (Day −1) stimulation of the inflammatory response by treatment with 2,4,6-trinitrobenzenesulphonic acid (TNBS) (15 mg/mL in 50% ethanol/50% saline). On Day 0 of the study TNBS (200 μL) is administered intra-colonically via a plastic catheter with BID dosing of the vehicle, reference or test compound continuing for 2 or 4 days. During the study, animals are weighed every day and stool observations are made and recorded as a score, based on stool consistency. At the time of sacrifice on Day 2 (or Day 4), the large intestine is removed and the length and weight recorded. Sections of the colon are taken for histopathology scoring to determine disease severity.

[1] = test system: adoptive transfer colitis; experiment: Adoptive transfer in mice; format: in vivo, SCID mice; settings: for % Inhibition: colon weight:length, induction window between naïve and vehicle animals; for levels of pro-inflammatory cytokines in samples of colon tissue: adoptive transfer model
Procedure: On Study day 0, female Balb/C mice are terminated and spleens obtained for CD45RB^high cell isolation (Using SCID IBD cell Separation protocol). Approximately 4×10^5 cells/mL CD45RB^high cells are then injected intraperitoneally (100 μL/mouse) into female SCID animals. On study day 14, mice are weighed and randomized into treatment groups based on body weight. On Day 14, compounds are administered BID, via oral gavage, in a peanut oil vehicle at the dose levels outlined below in Tables 6a and 6b and a dose volume of 5 mL/kg. Treatment continues until study day 42, at which point the animals are necropsied 4 hours after the morning administration. The colon length and weight are recorded and used as a secondary endpoint in the study as a measurement of colon oedema. The colon is then divided into six cross-sections, four of which are used for histopathology scoring (primary endpoint) and two are homogenised for cytokine analysis. Data shown is the % inhibition of the induction window between nave animals and vehicle animals, where higher inhibition implies closer to the non-diseased, nave, phenotype.

[2] = test system: intestinal mucosa biopsies from ulcerative colitis patients; experiment: Human biopsy assay (cytokine release from intestinal mucosa biopsies); format: cell-based; settings: 1 μg/mL, 24 hours
Procedure: Intestinal mucosa biopsies are obtained from the inflamed regions of the colons of IBD patients. The biopsy material is cut into small pieces (2-3 mm) and placed on steel grids in an organ culture chamber at 37° C. in a 5% CO2/95% O2 atmosphere in serum-free media. DMSO control or test compounds at the desired concentration are added to the tissue and incubated for 24 hr in the organ culture chamber. The supernatant is harvested for determination of IL-6, IL-8, IL-1β and TNFα levels by R&D ELISA.

[3] = test system: endotoxin-induced uveitis; experiment: Endotoxin-induced uveitis in rats; format: in vivo, Lewis rats; settings: rats treated with intravitreal endotoxin LPS
Procedure: Male, Lewis rats (6-8 weeks old, Charles River UK Limited) are housed in cages of 3 at 19-21° C. with a 12 h light/dark cycle (07:00/19:00) and fed a standard diet of rodent chow and water ad libitum. Non-fasted rats are weighed, individually identified on the tail with a permanent marker, and receive a single intravitreal administration into the right vitreous humor (5 μL dose volume) of 100 ng/animal of LPS (Escherichia coli 0111:B4 prepared in PBS, Sigma Aldrich, UK) using a 32-gauge needle. Untreated rats are injected with PBS. […] Following euthanasia, the right eye of each animal is enucleated and dissected into front (anterior) and back (posterior) sections around the lens. Each section is weighed and homogenised in 500 μL of sterile phosphate buffered saline followed by 20 minutes centrifugation at 12000 rpm at 4° C.

[4] = test system: Salmonella typhimurium, strains TA98 and TA100; experiment: Mutagenicity assessment (bacterial reverse mutation screen); format: cell-based; settings: TA98 and TA100, presence or absence of S-9 mix
Procedure: Studies were conducted by Sequani (Ledbury, Herefordshire, UK) to assess compounds of the invention for their ability to induce mutations in two histidine dependent auxotrophic mutants of Salmonella typhimurium, strains TA98 and TA100 in vitro.
The mutation screen was conducted using the plate incorporation method and was performed in both the presence and absence of S-9 mix (a liver post-mitochondrial fraction derived from the livers of Aroclor 1254 treated rats). The bacteria were exposed to test compounds dissolved in dimethylsulphoxide, which solvent was also used as the negative control. The dose levels used were 0.32, 1.6, 8, 40, 200, 1000 or 5000 μg/plate.

Chain of B-Raf (P15056 whole entry): as the sequence (P15056 whole entry V600E) above, with E600V counted along it

SMILES	effect on the binding of B-Raf to its standard ligand (B-Raf)	effect on the binding of B-Raf (V600E) to its standard ligand (B-Raf (V600E))	activity in TNBS model of colonic inflammation (histopathology analysis) (TNBS-induced colitis)	cytokine levels in anterior and posterior segments of the eyes [3]	increases in revertant colonies [4]	other results
COCCOCCOCCNC(=O)c1cc(Nc2cc(Oc3ccc(NC(=O)Nc4cc(C(C)(C)C)cc(NS(C)(=O)=O)c4OC)c4ccccc34)ccn2)cc(OC)c1 [Example 3, 3-((4-((4-(3-(5-(tert-Butyl)-2-methoxy-3-(methylsulfonamido)phenyl)ureido)naphthalen-1-yl)oxy)pyridin-2-yl)amino)-5-methoxy-N-(2-(2-(2-methoxyethoxy)ethoxy)ethyl)benzamide]	did not have any significant effect	did not have any significant effect	displayed substantial activity			number of individual kinase hits S(1) (non-mutant kinases; 50 nM): 0; number of individual kinase hits S(10) (non-mutant kinases; 50 nM): 9; number of individual kinase hits S(35) (non-mutant kinases; 50 nM): 36; number of individual kinase hits S(1) (non-mutant kinases; 500 nM): 18; number of individual kinase hits S(10) (non-mutant kinases; 500 nM): 59; number of individual kinase hits S(35) (non-mutant kinases; 500 nM): 93; selectivity compared to the Reference Compound (non-mutant kinases): substantially improved selectivities; activity in T cell driven model of colonic inflammation (ratios of colon weight to length) ([1]; adoptive transfer): displayed significant activity
COCCOCCOCCOc1cc(Nc2nccc(Oc3ccc(NC(=O)Nc4cc(C(C)(C)C)cc(NS(C)(=O)=O)c4OC)c4ccccc34)n2)cc(OC)c1 [Example 4, N-(5-(tert-Butyl)-2-methoxy-3-(3-(4-((2-((3-methoxy-5-(2-(2-(2-methoxyethoxy)ethoxy)-ethoxy)phenyl)amino)pyrimidin-4-yl)oxy)naphthalen-1-yl)ureido)phenyl)methanesulfonamide]	did not have any significant effect	did not have any significant effect	displayed substantial activity	significantly reduced cytokine levels	no dose-related or statistically significant increases in revertant colonies	cytokine (IL-1β, IL-6 and IL-8) release compared to the DMSO control [2]: significantly inhibited; % Inhibition ([1]; 0.3 mg/kg BID oral gavage): 62%; % Inhibition ([1]; 1 mg/kg BID oral gavage): 110%; levels of pro-inflammatory cytokines in samples of colon tissue [1]: significantly reduced levels of pro-inflammatory cytokines
COc1cc(Nc2cc(Oc3ccc(NC(=O)Nc4cc(C(C)(C)C)cc(NS(C)(=O)=O)c4OC)c4ccccc34)ccn2)cc(C(=O)NCCN2CCOCC2)c1 [Example 27, 3-((4-((4-(3-(5-(tert-Butyl)-2-methoxy-3-(methylsulfonamido)phenyl)ureido)naphthalen-1-yl)oxy)pyridin-2-yl)amino)-5-methoxy-N-(2-morpholinoethyl)benzamide]	did not have any significant effect	did not have any significant effect	displayed substantial activity	significantly reduced cytokine levels	no dose-related or statistically significant increases in revertant colonies	cytokine (IL-1β, IL-6 and IL-8) release compared to the DMSO control [2]: significantly inhibited; % Inhibition ([1]; 3 mg/kg BID oral gavage): 99%; levels of pro-inflammatory cytokines in samples of colon tissue [1]: significantly reduced levels of pro-inflammatory cytokines
CNC(=O)c1cc(C(C)(C)C)cc(NC(=O)Nc2ccc(Oc3ccnc(Nc4cc(OC)cc(OCCOCCOCCOC)c4)c3)c3ccccc23)c1OC [Example 29, 5-(tert-Butyl)-2-methoxy-3-(3-(4-((2-((3-methoxy-5-(2-(2-(2-methoxyethoxy)ethoxy)-ethoxy)phenyl)amino)pyridin-4-yl)oxy)naphthalen-1-yl)ureido)-N-methylbenzamide]				significantly reduced cytokine levels		
COCCOCCOCCOc1cc(Nc2cc(Oc3ccc(NC(=O)Nc4cc(C(C)(C)C)cc(C(N)=O)c4OC)c4ccccc34)ccn2)cc(OC)c1 [Example 34, 5-(tert-Butyl)-2-methoxy-3-(3-(4-((2-((3-methoxy-5-(2-(2-(2-methoxyethoxy)ethoxy)ethoxy)phenyl)amino)pyridin-4-yl)oxy)naphthalen-1-yl)ureido)benzamide]			displayed substantial activity			
COc1cc(Nc2cc(Oc3ccc(NC(=O)Nc4cc(C(C)(C)C)cc(NS(C)(=O)=O)c4OC)c4ccccc34)ccn2)cc(C(=O)NCCCN2CCOCC2)c1 [Example 66, 3-((4-((4-(3-(5-(tert-Butyl)-2-methoxy-3-(methylsulfonamido)phenyl)ureido)naphthalen-1-yl)oxy)pyridin-2-yl)amino)-5-methoxy-N-(3-morpholinopropyl)benzamide]				significantly reduced cytokine levels		
COc1c(NC(=O)Nc2ccc(Oc3ccnc(Nc4ccccc4)c3)c3ccccc23)cc(C(C)(C)C)cc1C(=O)NC1COC1 [Example 75, 5-(tert-Butyl)-2-methoxy-N-(oxetan-3-yl)-3-(3-(4-((2-(phenylamino)pyridin-4-yl)oxy)-naphthalen-1-yl)ureido)benzamide]	did not have any significant effect	did not have any significant effect	displayed substantial activity	significantly reduced cytokine levels	no dose-related or statistically significant increases in revertant colonies	number of individual kinase hits S(1) (non-mutant kinases; 50 nM): 2; number of individual kinase hits S(10) (non-mutant kinases; 50 nM): 14; number of individual kinase hits S(35) (non-mutant kinases; 50 nM): 39; number of individual kinase hits S(1) (non-mutant kinases; 500 nM): 15; number of individual kinase hits S(10) (non-mutant kinases; 500 nM): 55; number of individual kinase hits S(35) (non-mutant kinases; 500 nM): 91; selectivity compared to the Reference Compound (non-mutant kinases): substantially improved selectivities
COc1cc(Nc2cc(Oc3ccc(NC(=O)Nc4cc(C(C)(C)C)cc(NS(C)(=O)=O)c4OC)c4ccccc34)ccn2)cc(C(=O)NCCN2CCN(C)CC2)c1 [Example 79, 3-((4-((4-(3-(5-(tert-Butyl)-2-methoxy-3-(methylsulfonamido)phenyl)ureido)naphthalen-1-yl)oxy)pyridin-2-yl)amino)-5-methoxy-N-(2-(4-methylpiperazin-1-yl)ethyl)benzamide]			displayed substantial activity			
